Laboratory results published in ChEMBL document CHEMBL3785088, “Synthesis, anti-inflammatory, analgesic and COX-1/2 inhibition activities of anilides based on 5,5-diphenylimidazolidine-2,4-dione scaffold: Molecular docking studies” (Eur J Med Chem, 2016).

How the values were obtained:
[1] = tested on: Rattus norvegicus; assay: Antiinflammatory activity in ip dosed Sprague-Dawley rat assessed as inhibition of carrageenan-induced foot paw edema measured 2 hrs post carrageenan challenge by plethysmometry; type: functional
[2] = target: T1, Prostaglandin G/H synthase 1 (Ovis aries, UniProt P05979); assay: Inhibition of ovine COX1 preincubated for 5 mins followed by addition of arachidonic acid as substrate measured after 2 mins by enzyme immunoassay
T1 sequence (P05979 whole entry): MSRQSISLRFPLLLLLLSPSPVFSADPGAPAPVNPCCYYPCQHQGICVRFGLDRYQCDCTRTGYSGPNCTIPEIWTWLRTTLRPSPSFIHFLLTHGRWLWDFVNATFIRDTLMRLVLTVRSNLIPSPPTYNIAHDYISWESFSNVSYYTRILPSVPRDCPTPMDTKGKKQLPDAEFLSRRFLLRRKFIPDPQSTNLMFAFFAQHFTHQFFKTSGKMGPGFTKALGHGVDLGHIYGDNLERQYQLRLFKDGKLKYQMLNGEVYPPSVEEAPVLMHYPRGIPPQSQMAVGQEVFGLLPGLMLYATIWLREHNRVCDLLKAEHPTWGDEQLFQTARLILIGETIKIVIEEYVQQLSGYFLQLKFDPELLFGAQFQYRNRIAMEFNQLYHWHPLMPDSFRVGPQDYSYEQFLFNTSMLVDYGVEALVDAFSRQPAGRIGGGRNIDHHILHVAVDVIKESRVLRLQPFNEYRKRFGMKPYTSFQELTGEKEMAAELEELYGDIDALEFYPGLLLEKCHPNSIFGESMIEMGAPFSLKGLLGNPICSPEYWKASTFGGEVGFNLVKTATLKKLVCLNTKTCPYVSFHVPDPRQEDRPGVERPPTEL

[3] = tested on: Mus musculus; assay: Analgesic activity in ip dosed albino Swiss mouse assessed as reduction in licking and blowing response at 58 deg C measured after 60 mins by hot plate test; type: functional; details: 1 h

SMILES	ED50 [1]	IC50 [2]	ED50 [3]
COc1cc(CNC(=O)CN2C(=O)NC(c3ccccc3)(c3ccccc3)C2=O)cc(OC)c1OC	90 mg/kg	> 100 µM	68.5 mg/kg
NS(=O)(=O)c1ccc(NC(=O)CN2C(=O)NC(c3ccccc3)(c3ccccc3)C2=O)cc1	97 mg/kg	> 100 µM	66.2 mg/kg
O=C(CN1C(=O)NC(c2ccccc2)(c2ccccc2)C1=O)Nc1ccccc1	> 200 mg/kg	–	–
Cc1ccc(-c2cc(C(F)(F)F)nn2-c2ccc(S(N)(=O)=O)cc2)cc1 [CELECOXIB]	86.4 mg/kg	–	74.1 mg/kg
O=C(CN1C(=O)NC(c2ccccc2)(c2ccccc2)C1=O)N/N=C/c1ccccc1	> 200 mg/kg	–	–
O=C(CCN1C(=O)NC(c2ccccc2)(c2ccccc2)C1=O)Nc1ccc(F)cc1	123 mg/kg	> 100 µM	80.1 mg/kg
O=C(CCN1C(=O)NC(c2ccccc2)(c2ccccc2)C1=O)NCc1ccccc1	> 200 mg/kg	–	–
COc1ccc(CNC(=O)CCN2C(=O)NC(c3ccccc3)(c3ccccc3)C2=O)cc1	112 mg/kg	> 100 µM	122 mg/kg
NS(=O)(=O)c1ccc(NC(=O)CCN2C(=O)NC(c3ccccc3)(c3ccccc3)C2=O)cc1	75 mg/kg	> 100 µM	40.3 mg/kg
O=C(CCN1C(=O)NC(c2ccccc2)(c2ccccc2)C1=O)Nc1ccccc1	> 200 mg/kg	–	–
COc1ccc(NC(=O)CCN2C(=O)NC(c3ccccc3)(c3ccccc3)C2=O)cc1	98 mg/kg	> 100 µM	71.1 mg/kg
O=C(CN1C(=O)NC(c2ccccc2)(c2ccccc2)C1=O)c1ccccc1	> 200 mg/kg	–	–
O=C(CN1C(=O)NC(c2ccccc2)(c2ccccc2)C1=O)c1ccc(F)cc1	156 mg/kg	70.5 µM	142 mg/kg
COc1ccc(CNC(=O)CN2C(=O)NC(c3ccccc3)(c3ccccc3)C2=O)cc1	109 mg/kg	> 100 µM	67.3 mg/kg
NS(=O)(=O)c1ccc(CNC(=O)CN2C(=O)NC(c3ccccc3)(c3ccccc3)C2=O)cc1	75 mg/kg	> 100 µM	54.6 mg/kg
COc1ccc(C(=O)CN2C(=O)NC(c3ccccc3)(c3ccccc3)C2=O)cc1	155 mg/kg	70.5 µM	184 mg/kg
COc1ccc(/C=N/NC(=O)CN2C(=O)NC(c3ccccc3)(c3ccccc3)C2=O)cc1	> 200 mg/kg	–	–
O=C(CCN1C(=O)NC(c2ccccc2)(c2ccccc2)C1=O)NCc1ccc(F)cc1	122 mg/kg	> 100 µM	75 mg/kg
O=C(CN1C(=O)NC(c2ccccc2)(c2ccccc2)C1=O)NCc1ccc(F)cc1	120 mg/kg	> 100 µM	90.9 mg/kg
COc1ccc(/C=N/N2C(=O)NC(c3ccccc3)(c3ccccc3)C2=O)cc1	> 200 mg/kg	–	–
O=C(CN1C(=O)NC(c2ccccc2)(c2ccccc2)C1=O)Nc1ccc(F)cc1	129 mg/kg	> 100 µM	119 mg/kg
COc1ccc(NC(=O)CN2C(=O)NC(c3ccccc3)(c3ccccc3)C2=O)cc1	120 mg/kg	> 100 µM	86 mg/kg
O=C(CN1C(=O)NC(c2ccccc2)(c2ccccc2)C1=O)NCc1ccccc1	> 200 mg/kg	–	–
O=C(CN1C(=O)NC(c2ccccc2)(c2ccccc2)C1=O)N/N=C/c1ccc(F)cc1	> 200 mg/kg	–	–
